Assays:
Type in all cases: cell-based
[1] = tested on: MCF7 cells (ATCC #HTB-22); assay: Cellular growth inhibition assay, MCF7 cells purchased from ATCC; conditions: Homo sapiens, MCF7, 144 h, Table 8-A; MCF7 cells purchased from ATCC; six days; CellTiter-Glo; read-out: GI50
Summary of the method: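 GI50 values come from a four-parameter fit of CellTiter-Glo 2.0 luminescence after six days of compound exposure at 37° C. Seeding density depended on the source: 225 cells/well for ECACC MCF7, 1,500 for ATCC. Medium was RPMI 1640 with 10% FBS and 0.2 U/ml insulin.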

[2] = tested on: T-Rex 293 cells having increased expression of estrogen receptor alpha protein; assay: Cellular growth inhibition assay, T-Rex 293 cells, (+) doxycycline; conditions: T-REx-293, 72 h, T-Rex 293 cells with doxycycline-induced ERα expression, 72 hours, CellTiter-Glo 2.0; read-out: (+) Dox TRex ERa (GI50)
Summary of the method: (§1)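 Growth of a doxycycline-inducible ERα T-Rex 293 clone, induced or not with 3 ng/mL doxycycline, was followed for 72 h with test compound in hormone-depleted medium. CellTiter-Glo luminescence gave GI50.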

[3] = tested on: T-Rex 293 cells lacking increased expression of estrogen receptor alpha protein; assay: Cellular growth inhibition assay, T-Rex 293 cells, (−) doxycycline; conditions: T-REx-293, 72 h, T-Rex 293 cells without doxycycline, 72 hours, CellTiter-Glo 2.0; read-out: (−) Dox TRex ERa (GI50)
Summary of the method: as §1

Row | SMILES | GI50 [1] | GI50 [2] | GI50 [3]
1 | CCN(CCCCCCCCNC(=O)C[C@@H]1N=C(c2ccc(Cl)cc2)c2c(sc(C)c2C)-n2c(C)nnc21)CCOc1ccc(C(=O)c2c(-c3ccc(O)cc3)sc3cc(O)ccc23)cc1 [I-2, (S)-2-(4-(4-chlorophenyl)-2,3,9-trimethyl-6H-thieno[3,2-f][1,2,4]triazolo[4,3-a][1,4]diazepin-6-yl)-N-(8-(ethyl(2-(4-(6-hydroxy-2-(4-hydroxyphenyl)benzo[b]thiophene-3-carbonyl)phenoxy)ethyl)amino)octyl)acetamide] | 0.05 to 0.5 µM | 0.05 to 0.5 µM | 0.05 to 0.5 µM
2 | CCN(CCOCCOCCNC(=O)C[C@@H]1N=C(c2ccc(Cl)cc2)c2c(sc(C)c2C)-n2c(C)nnc21)CCOc1ccc(C(=O)c2c(-c3ccc(O)cc3)sc3cc(O)ccc23)cc1 [I-3, (S)-2-(4-(4-chlorophenyl)-2,3,9-trimethyl-6H-thieno[3,2-f][1,2,4]triazolo[4,3-a][1,4]diazepin-6-yl)-N-(2-(2-(2-(ethyl(2-(4-(6-hydroxy-2-(4-hydroxyphenyl)benzo[b]thiophene-3-carbonyl)phenoxy)ethyl)amino)ethoxy)ethoxy)ethyl) acetamide] | 0.05 to 0.5 µM | 0.05 to 0.5 µM | 0.5 to 2.5 µM

Source: patent US12558428B2, “Heterobifunctional compounds and their use in treating disease” (Halda Therapeutics OpCo, Inc., priority 2024, dated 2026)
